In patent US12384779B2, “Bicyclic compounds” (Aligos Therapeutics, Inc., priority 2022, dated 2025):

How the values were obtained:
[1] = Cell viability by CellTiter-Glo 2.0 (intracellular ATP) in HepG2.117 cells; type: cell-based; conditions: human, CellTiter-Glo 2.0, 3 days incubation
Procedure: (§1) The following assay procedure describes the HBV antiviral assay, using HepG2.117 cells, which carry a stably integrated genotype D HBV genome under the control of a Tet-off promoter, and intracellular HBV DNA quantification as endpoint. Cell viability is assessed in parallel by measuring the intracellular ATP content using CellTiter-Glo 2.0 (Promega).
(§2) On day 0, HepG2.117 cells (which are maintained in routine cell culture with doxycycline present in the medium at a final concentration of 1 μg/mL) are seeded in 96-well plates (white with clear bottom) at a density of 2.0×10^4 cells/well (0.1 mL/well) in medium without doxycycline to induce pgRNA transcription and subsequent formation of HBV particles. The cells are incubated at 37° C. and 5% CO2.
(§3) On day 1, medium is removed from each well, the test articles are diluted in culture medium without doxcycyline and 100 μL was added to cell culture wells (9 concentrations, 4-fold dilution). For each plate, 6 untreated (merely DMSO) wells are included. The final concentration of DMSO in the culture medium is 2%. Each plate is prepared in duplicate (one for HBV DNA extraction, one for CellTiter-Glo 2.0 measurement). The cells are incubated at 37° C. and 5% CO2 for 3 days.
(§4) On day 4, cell viability is assessed using CellTiter-Glo 2.0 and cell lysates are prepared for HBV DNA extraction and subsequent quantification by qPCR.
Using the other plates, the cell viability is quantified by CellTiter-Glo 2.0 according to the manufacturer's manual. In brief, 100 μL of reagent solution is added to the culture plates and shaken for 2′. The plates are incubated at rt for 10 min and luminescence signal is subsequently measured on a VarioSkan Lux (ThermoFisher) plate reader.
(§5) Cell viability is calculated as follows: % Cell viability=(luminescence value of test sample)/(average luminescence value of 2% DMSO control)×100%. HBV DNA inhibition was calculated as follows: 100−(HBV DNA copy number of test sample)/(average HBV DNA copy number of 2% DMSO control)×100%. No normalization to entecavir is required due to the excellent dynamic window of this assay. The CC50, EC50 and EC90 values were determined by dose-response curves fitted using non-linear regression.

HBV = experiment: HBV-DNA antiviral assay using HepG2.117 cells (intracellular HBV DNA by qPCR); type: cell-based, genotype D HBV; conditions: Hepatitis B virus, 72 h, HBV DNA inhibition, 3 days incubation
Procedure: as §1, §2, §3, §4
Medium is removed from each well and 100 μL of 0.33% NP-40 in H2O was added to each well. Plates are sealed, incubated at 4° C. for 5 mins, vortexed extensively and centrifuged briefly. Next, 35 μL of lysate is added to 65 μL QuickExtract DNA Extraction Solution (Epicentre) in a PCR plate for each well. PCR plate is incubated at 65° C. for 6 mins, 98° C. for 2 mins and finally cooled to 4° C. HBV DNA is then quantified by qPCR with HBV-specific primers and probes as specified in Table 2 using the Bio-Rad SSOAdvanced Universal Probes Supermix on a CFX96 machine (Bio-Rad). The PCR cycle program consisted of 95° C. for 3 mins, followed by 40 cycles at 95° C. for 10 sec and 60° C. for 30 sec.
A DNA standard is prepared by dilution of an IDT gBlock corresponding to the amplicon with concentrations ranging from 10^2 to 10^8 copies/input (i.e., per 4 μL) and used to generate a standard curve by plotting Cq values vs. HBV DNA standard concentration. The quantity of HBV DNA in each sample is determined by interpolating from the standard curve.
as §5

Row | Compound | CC50 at 3 days [1] | EC50 (HBV)
1 | CNC(=O)c1ccc(-n2c(-n3nc(C#N)cc3C)nc3c(c2=O)C[C@@H](C)N(C(=O)c2ccc(Br)c(C(F)(F)F)c2)C3)cc1 [Compound 1, (R)-4-(7-(4-bromo-3-(trifluoromethyl)benzoyl)-2-(3-cyano-5-methyl-1H-pyrazol-1-yl)-6-methyl-4-oxo-5,6,7,8-tetrahydropyrido[3,4-d]pyrimidin-3(4H)-yl)-N-methylbenzamide] | > 50000 nM | ≤ 50 nM
2 | CNC(=O)c1ccc(-n2c(-n3nc(C)cc3C#N)nc3c(c2=O)C[C@@H](C)N(C(=O)c2ccc(Br)c(C(F)(F)F)c2)C3)cc1 [Compound 2, (R)-4-(7-(4-bromo-3-(trifluoromethyl)benzoyl)-2-(5-cyano-3-methyl-1H-pyrazol-1-yl)-6-methyl-4-oxo-5,6,7,8-tetrahydropyrido[3,4-d]pyrimidin-3(4H)-yl)-N-methylbenzamide] | 29200 nM | ≤ 50 nM
3 | CNC(=O)c1ccc(-n2c(-n3nc(C4CC4)cc3C)nc3c(c2=O)C[C@@H](C)N(C(=O)c2ccc(Br)c(C(F)(F)F)c2)C3)cc1 [Compound 3, (R)-4-(7-(4-bromo-3-(trifluoromethyl)benzoyl)-2-(3-cyclopropyl-5-methyl-1H-pyrazol-1-yl)-6-methyl-4-oxo-5,6,7,8-tetrahydropyrido[3,4-d]pyrimidin-3(4H)-yl)-N-methylbenzamide] | > 50000 nM | ≤ 50 nM
4 | CCc1cc(CC)n(-c2nc3c(c(=O)n2-c2ccc(C(=O)NC)cc2)C[C@@H](C)N(C(=O)c2ccc(Br)c(C(F)(F)F)c2)C3)n1 [Compound 4] | > 50000 nM | ≤ 50 nM
5 | CNC(=O)c1ccc(-n2c(-n3nc(C(F)(F)F)cc3C)nc3c(c2=O)C[C@@H](C)N(C(=O)c2ccc(Br)c(C(F)(F)F)c2)C3)cc1 [Compound 5] | > 500 nM | ≤ 50 nM
6 | CNC(=O)c1ccc(-n2c(-n3nc(C(C)(C)C)cc3C)nc3c(c2=O)C[C@@H](C)N(C(=O)c2ccc(Br)c(C(F)(F)F)c2)C3)cc1 [Compound 6] | 41800 nM | ≤ 50 nM
7 | CNC(=O)c1ccc(-n2c(-n3nc(C(C)C)cc3C)nc3c(c2=O)C[C@@H](C)N(C(=O)c2ccc(Br)c(C(F)(F)F)c2)C3)cc1 [Compound 7] | > 50000 nM | ≤ 50 nM
8 | CNC(=O)c1ccc(-n2c(-n3nc(C)cc3C(C)C)nc3c(c2=O)C[C@@H](C)N(C(=O)c2ccc(Br)c(C(F)(F)F)c2)C3)cc1 [Compound 8] | > 50000 nM | ≤ 50 nM
9 | CNC(=O)c1ccc(-n2c(-n3nc(C)c(C)c3C)nc3c(c2=O)C[C@@H](C)N(C(=O)c2ccc(Br)c(C(F)(F)F)c2)C3)cc1 [Compound 9] | > 5000 nM | 50 to 500 nM
10 | CNC(=O)c1ccc(-n2c(-n3cc4c(n3)CCCC4)nc3c(c2=O)C[C@@H](C)N(C(=O)c2ccc(Br)c(C(F)(F)F)c2)C3)cc1 [Compound 10] | > 50000 nM | ≤ 50 nM
11 | CNC(=O)c1ccc(-n2c(-n3nc(C(=O)N(C)C)cc3C)nc3c(c2=O)C[C@@H](C)N(C(=O)c2ccc(Br)c(C(F)(F)F)c2)C3)cc1 [Compound 11] | > 50000 nM | 50 to 500 nM
12 | [2H]c1c(C)nn(-c2nc3c(c(=O)n2-c2ccc(C(=O)NC)cc2)C[C@@H](C)N(C(=O)c2ccc(Br)c(C(F)(F)F)c2)C3)c1C [Compound 12] | > 50000 nM | ≤ 50 nM
